From PubChem BioAssay AID489006 (Sanford-Burnham Center for Chemical Genomics, 2010) come the findings set out here.

The test system of the assay is Jurkat NF-kB reporter, luminescence. Description: NF-kB reporter inhibition in Jurkat cells, dose response, selectivity assay for B-cell receptor NF-kB inhibitor project, cell-based, luminescence (AID 489006).

The source made the active and inactive calls. The rule behind the calls is not given here.

As for `COc1ccc(C(=O)Nc2ccccc2C(=O)NCc2ccco2)cc1OC`, the IC50 is 61.7 µM (inactive).

In the case of `Cc1ccc(/C=C2\SC(=S)N(CCCC(=O)Nc3ccccn3)C2=O)cc1`, the IC50 was 0.76 µM. For the compound `Cc1ccc(C)c(-n2nnnc2Sc2nnnn2-c2ccccc2)c1`, the IC50 was 1.42 µM.

Turning to `Cc1ccc(/C=C2\SC(=S)N(CCCC(=O)Nc3cc(C)on3)C2=O)cc1`, the IC50 is 17.7 µM. As for `Cc1ccc(C2(c3ccc(C)cc3)CC2C(=O)Nc2ccc([N+](=O)[O-])cc2O)cc1` (stereo unspecified), the figure is 50.1 µM (inactive); as for `O=S(=O)(c1cnc(Cl)c(Cl)c1)N1CCCc2ccccc21`, 18.6 µM. Take `Cc1cc(OCC(=O)NC2CC2)c2c(C)c(C)c(=O)oc2c1`: the IC50 was > 80 µM (inactive).

On to `Cc1c(CCC(=O)O)c(=O)oc2cc3oc4c(c3cc12)CCCC4`, for which the half-maximal inhibitory concentration (IC50) was 7.43 µM.

Turning to `COc1ccc(NC(=S)NCc2ccccc2)c(OC)c1`, the IC50 was > 80 µM (inactive). As for `COc1ccc(Cc2nc(-c3ccc(NC(=O)c4cccnc4)cc3)no2)cc1`, the figure is > 80 µM (inactive); as for `COc1ccccc1/C=C1\SC(=S)N(CCC(=O)Nc2cccc(O)c2)C1=O`, > 80 µM (inactive); as for `CC(C)CN(C(=O)COC(=O)C12CC3CC(CC(C3)C1)C2)c1c(N)n(Cc2ccccc2)c(=O)[nH]c1=O`, 13.4 µM.

In the case of `CCOC(=O)N1CCN(c2ncnc3c2[nH]c2ccc(OC)cc23)CC1`, the IC50 was 61 µM (inactive). For `COCCCNC(=O)COc1ccc(-c2nccc(-c3ccccn3)n2)cc1`, the IC50 was 8.68 µM. In the case of `CC1CCN(C(=O)CCCOc2cc(=O)n(C)c3ccccc23)CC1`, the IC50 was > 80 µM (inactive).

Take `CC(C)(C)c1ccc(-c2noc(CCC(=O)Nc3cccnc3)n2)cc1`: the concentration for half-maximal inhibition (IC50) is under 0.16 µM. Then `CC(C)c1ccc(/C=C2\SC(=S)N(CCC(=O)NCCCn3ccnc3)C2=O)cc1`, with 2.64 µM; and `CNC(=O)c1cc(Nc2nnc(-c3ccc(O)cc3)c3ccccc23)ccc1OC`, with > 80 µM (inactive). On to `COc1ccc(/C=N/OCC(=O)NC(c2ccccc2)c2ccccc2)cc1OC`, for which the IC50 is > 80 µM (inactive).

For `COc1ccc(-n2c(-c3ccc(Br)cc3)c[n+]3c2CCc2ccccc2-3)cc1`, the IC50 was 31.8 µM (inactive). As for `CCOc1cc2nc(-c3ccc(OC)c(OC)c3)nc(N3CCOCC3)c2cc1OC`, the figure is 45.8 µM (inactive); as for `Cc1ccc(/C=C2\SC(=S)N(CCC(=O)NNC(=O)c3ccncc3)C2=O)cc1`, > 80 µM (inactive); as for `CN(C)c1cc[n+](Cc2c(Cl)cccc2Cl)cc1`, > 80 µM (inactive).

Turning to `CCOc1ccc(-c2cc(CCCC(=O)NCCCOC)no2)cc1`, the IC50 is > 80 µM (inactive). Take `COc1cccc(N2CCN(c3ncnc4c3[nH]c3ccc(F)cc34)CC2C)c1` (stereo unspecified): the IC50 was 1.31 µM.

On to `CC(C)N1C(=O)S/C(=C/c2ccc3c(c2)n(C)c(=O)n3C)C1=O`, for which the IC50 is > 80 µM (inactive). Then `COc1ccc(/C=C2\SC(=S)N(CCC(=O)Nc3ccc(C(=O)O)cc3)C2=O)cc1`, with > 80 µM (inactive); and `Cc1cc(NC(=O)CCCN2C(=O)/C(=C/c3ccccc3Cl)SC2=S)no1`, with 20.4 µM (inactive). Turning to `CC1(C)CC2CC(C)(CN2S(=O)(=O)c2ccc(C(=O)Nc3ccc(S(=O)(=O)N4CCOCC4)cc3)cc2)C1` (stereo unspecified), the IC50 was > 80 µM (inactive). Then `Cc1nc(Nc2c(Cl)cccc2Cl)sc1C(=O)Nc1ccccc1`, with > 80 µM (inactive). Then `Oc1[nH]c2ccccc2c1N=Nc1nc(Nc2ccccc2)nc(N2CCOCC2)n1`, with 9.4 µM; and `CCn1c(=S)[nH]c2cc(S(=O)(=O)N3CCCCC3)ccc21`, with > 80 µM (inactive); and `Cc1ccc(C(=O)CSc2nnc(COc3ccccc3)o2)cc1`, with > 80 µM (inactive). Then `COc1ccc(/C=C2/SC(=S)N(CCC(=O)O)C2=O)cc1`, with 0.4 µM; and `CCC(=O)N(C1=C(NC)C(=O)c2ccccc2C1=O)C(C)C`, with 45.8 µM (inactive); and `O=C(N/N=C/c1cccnc1)c1cc(-c2ccccc2OCc2ccccc2)n[nH]1`, with > 80 µM (inactive). For the compound `Cc1cc(=O)[nH]c2c(C)cc(S(=O)(=O)N3CCCCC3)cc12`, the IC50 is > 80 µM (inactive). Then `CCN1C(=O)c2cccc3c(S(=O)(=O)NCC4CCCO4)ccc1c23` (stereo unspecified), with > 80 µM (inactive); and `O=C(Nc1ccccc1C(=O)Nc1nnc(C(F)(F)F)s1)c1ccccc1`, with > 80 µM (inactive). For `Cc1c(CCC(=O)N2CCC(C(=O)O)(c3ccccc3)CC2)c(=O)oc2cc3oc4c(c3cc12)CCCC4`, the IC50 was 4.93 µM.

Regarding `COC(=O)CSc1nnc(-c2sc3ccccc3c2Cl)o1`, the concentration for half-maximal inhibition (IC50) was 3.43 µM.

On to `Cc1ccc(/C=C2\SC(=S)N(CCCC(=O)NNC(=O)c3ccccc3O)C2=O)cc1`, for which the IC50 was 0.89 µM.

With `O=c1cccc2c1c1cc[nH]c3ccc(=O)n2c31`, the half-maximal inhibitory concentration (IC50) is 2.3 µM. Then `Cc1c(CCO)c(=O)oc2n[nH]c(-c3ccccc3)c12`, with > 80 µM (inactive); and `COc1ccc(/C=C2\SC(=O)N(CCCC(=O)Nc3ccc(C(=O)O)cc3)C2=O)cc1OC`, with 29.4 µM (inactive); and `CC(C)OCCCNC(=O)c1c(N)n(/N=C/c2ccccn2)c2nc3ccccc3nc12`, with 40.2 µM (inactive). As for `COc1ccc(-c2nc(CSCC(=O)NCc3ccco3)c(C)o2)cc1`, the figure is 66.8 µM (inactive); as for `O=C(Oc1cccc(/C=N/Nc2nc(Nc3ccccc3)nc(N3CCOCC3)n2)c1)c1ccco1`, > 80 µM (inactive). As for `Cc1nc2cc(-c3cccc(F)c3)nn2c(C)c1CCC(=O)NC(C)CCc1ccco1` (stereo unspecified), the figure is 4.14 µM. Turning to `Cc1cc(OC(=O)c2ccccc2Cl)cc(=O)n1C`, the IC50 is > 80 µM (inactive). As for `COc1ccccc1/C=C1/SC(=S)N(CCC(=O)Nc2cccnc2)C1=O`, the figure is > 80 µM (inactive); as for `Cc1ccc(-c2nc(C(=O)NCC3CCCO3)cc3c2[nH]c2ccccc23)cc1` (stereo unspecified), 23.4 µM (inactive). Then `COC(=O)c1[nH]c2ccc(C)cc2c1NC(=O)Nc1ccccc1OC`, with 55.2 µM (inactive); and `CC1CCc2c(sc3nc(C(C)(C)C)nc(N4CCN(C(=O)CCl)CC4)c23)C1` (stereo unspecified), with 1.27 µM.

For the compound `O=C(CCCN1C(=O)S/C(=C/C=C/c2ccccc2)C1=O)Nc1ccc(C(=O)O)cc1`, the IC50 is > 80 µM (inactive).

For `Cc1nn(C(C)(C)C)c(C)c1/C=N/OC(=O)Nc1ccc(Cl)c(Cl)c1`, the IC50 is 0.208 µM.

Consider `Cc1ccccc1-c1cc(C(=O)Nc2sc(C(=O)OC(C)C)c(C)c2C#N)c2ccccc2n1`, for which the IC50 was > 80 µM (inactive). As for `CCN(CC)CCOC(=O)c1ccc(NC(=O)CCCN2C(=O)S/C(=C/c3ccc(OC)cc3)C2=S)cc1`, the figure is 1.48 µM. As for `COc1cc2c3c(c1)c(N=NC(N)=S)c(O)n3C(C)(C)C=C2C`, the figure is > 80 µM (inactive); as for `CC(C)(O)/C=C/C(=O)[C@](C)(O)C1[C@H](O)C[C@@]2(C)C3CC=C4C(C[C@H](O)[C@@H](O)C4(C)C)[C@]3(C)C(=O)C[C@]12C` (stereo partly specified), 31.3 µM (inactive). Then `COc1ccc(/C=C2/SC(=S)N(CCCC(=O)Nc3ccc(O)cc3)C2=O)cc1`, with > 80 µM (inactive); and `COc1ccccc1/C=C1\SC(=S)N(CCC(=O)Nc2cc(C)on2)C1=O`, with 54.7 µM (inactive); and `Cc1ccc(-c2nn3c(C)nnc3c3ccccc23)cc1S(=O)(=O)NCc1ccco1`, with 46.7 µM (inactive). Turning to `COc1ccc(/C=C2\SC(=S)N(CCCC(=O)NNC(=O)c3ccccc3O)C2=O)cc1`, the IC50 was 0.58 µM. As for `COc1ccc(OCc2cccc(C(=O)Nn3cc([N+](=O)[O-])cn3)c2)cc1`, the figure is 1.85 µM. As for `CCOC(=O)C(=CNc1cc(C)ccc1C)C(=O)OCC`, the IC50 is > 80 µM (inactive).

On to `Cc1ccc(-c2nsc3c(N4CCC(C(N)=O)CC4)ncnc23)cc1`, for which the IC50 was 78.1 µM (inactive).

On to `O=C(CCl)Nc1ccccc1Sc1ccccc1`, for which the half-maximal inhibitory concentration (IC50) was 14.1 µM.

Take `N=c1c(C(=O)NC2CCCC2)cc2c(=O)n3ccccc3nc2n1CCN1CCOCC1`: the IC50 is > 80 µM (inactive). Then `Cc1ccc(C(=O)CSc2nnc(COc3cccc(C)c3)o2)cc1`, with > 80 µM (inactive).

As for `O=C(CCCN1C(=O)/C(=C/c2ccccc2Cl)SC1=S)NNC(=O)c1ccccc1Cl`, the IC50 was 1.76 µM. As for `COc1ccc(N(CC(=O)N2CCN(c3ccc(Cl)cc3)CC2)S(=O)(=O)c2c(C)n[nH]c2C)cc1`, the figure is > 80 µM (inactive). Then `Cc1ccc(S(=O)(=O)Nc2ccc3c(c2)n(C)c(=O)n3C)cc1`, with 73 µM (inactive); and `COc1ccc(-c2n(Cc3ccccc3)c3ccccc3[n+]2Cc2ccccc2)cc1`, with 42.7 µM (inactive); and `Nc1ccccc1SCC(=O)Nc1nc(-c2ccccc2)cs1`, with > 80 µM (inactive). As for `CCN(CC)C(=O)c1ccc(S(=O)(=O)Cc2ccc(C)cc2)c([N+](=O)[O-])c1`, the figure is 7.08 µM; as for `COc1ccc(-c2nn(C)c(=O)c3ccccc23)cc1NS(C)(=O)=O`, > 80 µM (inactive). Regarding `COc1ccc(-c2noc(CCCC(=O)Nc3ccc(C(N)=O)cc3)n2)cc1`, the IC50 was 11.9 µM. Then `CSc1ccc(-c2nc(CSCC(=O)NC3CC3)c(C)o2)cc1`, with > 80 µM (inactive). With `CN1C(=O)CC(c2ccco2)Sc2ccccc21` (stereo unspecified), the IC50 is > 80 µM (inactive).

`Cc1ccc(Nc2nc(N/N=C\c3ccc4c(c3)OCO4)nc(N3CCOCC3)n2)cc1`: the IC50 was 70.3 µM (inactive). As for `O=C(Nc1cccc(Br)c1)c1ccc2c(c1)SC1=NS(=O)(=O)CCN12`, the figure is > 80 µM (inactive). As for `COc1cc(-c2cc(=O)c3c(O)c(OC)c(OC)c(OC)c3o2)cc(OC)c1OC`, the figure is > 80 µM (inactive). As for `CCn1c(=O)cc(SCC(=O)N2CCC(C)CC2)c2ccccc21`, the IC50 was > 80 µM (inactive). Then `CCCCOc1ccc(NC(=O)C(=O)NCCCn2ccnc2)cc1`, with > 80 µM (inactive); and `C(=N\Nc1nc(Nc2ccccc2)nc(N2CCOCC2)n1)/c1c[nH]c2ccccc12`, with 37.7 µM (inactive).
